Data taken from paper PMC12004451, “Characterization of the Two-Domain Peptide Binding Mechanism of the Human CGRP Receptor for CGRP and the Ultrahigh Affinity ssCGRP Variant” (Biochemistry, 2025).
Ends that are not written are not given here.

Key:
[1] = test system: calcitonin receptor (CTR) ECD; settings: cited from earlier work
From the text: Similar to ssCGRP, the C-terminal segment of sCT has increased affinity for the receptor ECD, bein ...

[2] = cited from earlier work
From the text: Our analysis of the ssCGRP agonist and its truncated antagonist forms advance our understanding of their potential as long-acting therapeutics. It is widely accepted that long residence time is a desirable property of drugs.[61],[62] This is particularly true for antagonists, but there can also be value in long residence time GPCR agonists.[63],[64] […] The ssCGRP(8-37) antagonist has a CGRPR residence-time longer than the plasma half-life and the ssCGRP agonist can signal for longer than t ...

[3] = test system: CGRPR (CLR:RAMP1) in COS-7 cells; test: CAMYEL cAMP biosensor competition assay with N-terminal TMD-binding agonist AM(13-36); format: cell-based, human; settings: 30 μM, end point cAMP biosensor assay
Method: COS-7 cells were seeded in a 96-well white plate (Corning; Costar 3917) with a density of 20,000 cell/well, 100 μL/well, and incubated at 37 °C and 5% CO2 for 24 h. Cells were transiently transfected with 250 ng DNA total with 25 ng CLR, 25 ng RAMP, 125 ng CAMYEL biosensor, 75 ng empty pcDNA3.1(+) vector, and 375 ng branched PEI per well. Transfected cells were incubated at 37 °C and 5% CO2. […] The preincubation was followed by addition of coelenterazine h (10 μM) and simultaneous addition of 30 μM AM(13-36) agonist and antagonist as indicated, and incubated for 1 h at room temperature in total volume of 50 μL. Emissions at 475 and 535 nm were read in a PHERAstar FS plate reader (BMG Labtech, Ortenberg, Germany). The buffer control (no ligand) was subtracted from each data set and plotted with the corresponding 475/535 BRET ratio in GraphPad Prism.

Salmon calcitonin [sCT]
higher affinity of C-terminal segment for receptor ECD than hCT [1]: ~50 fold

CC(C)C[C@H](NC(=O)CNC(=O)[C@H](C)NC(=O)[C@H](CC(C)C)NC(=O)[C@H](CCCNC(=N)N)NC(=O)[C@H](Cc1cnc[nH]1)NC(=O)[C@@H](NC(=O)[C@@H](NC(=O)[C@@H]1CSSC[C@H](NC(=O)[C@H](C)N)C(=O)N[C@@H](CC(=O)O)C(=O)N[C@@H]([C@@H](C)O)C(=O)N[C@@H](C)C(=O)N[C@@H]([C@@H](C)O)C(=O)N1)C(C)C)[C@@H](C)O)C(=O)N[C@@H](CC(C)C)C(=O)N[C@@H](CO)C(=O)N[C@@H](CCCNC(=N)N)C(=O)N[C@@H](CO)C(=O)NCC(=O)NCC(=O)N[C@H](C(=O)N[C@H](C(=O)N[C@@H](CCCCN)C(=O)N[C@@H](CC(N)=O)C(=O)N[C@@H](CC(N)=O)C(=O)N[C@@H](Cc1ccccc1)C(=O)N[C@H](C(=O)N1CCC[C@H]1C(=O)N[C@H](C(=O)N[C@@H](CC(N)=O)C(=O)N[C@H](C(=O)NCC(=O)N[C@@H](CO)C(=O)N[C@@H](CCCCN)C(=O)N[C@@H](C)C(=O)N[C@@H](Cc1ccccc1)C(N)=O)C(C)C)[C@@H](C)O)C(C)C)C(C)C)C(C)C [CGRP(1-37), αCGRP(1-37)]
plasma half-life [2]: ~20 min

AM(13-36): C-terminally truncated adrenomedullin agonist comprising the TMD-binding portion (SFGCRFGTCTVQKLAHQIYQFTDK; ends and bridges not checked; cysteine pairing not given here; UniProt P35318 107-130, looked up, fragment)
agonism of the CGRPR (cAMP) [3]: agonism
